The record followed here is patent US10745389B2, “HDAC6 selective inhibitors, preparation method therefor, and application thereof” (CSTONE PHARMACEUTICALS (SUZHOU) CO., LTD., priority 2017, dated 2020).

Structures are written as SMILES. Where only a bound is given, the exact number is not on record here.

Usually IC50 stands for the concentration needed to halve the response being measured. Low values mean higher potency, high ones lower potency. Broadly, the bioavailability is dose-corrected exposure relative to a reference, in per cent. Usually clearance stands for the volume of plasma or blood freed of the substance per unit of time.

The target of one data set is HDAC 1 (Homo sapiens, UniProt Q13547). As to the kind of experiment: In vitro HDAC enzyme inhibition, fluorescent deacetylation assay (HDAC1). In kind it is biochemical. The method, then:
(§1) The degree of deacetylation of the acetylated substrate was determined by detecting the changes in the intensity of the fluorescent signal in the 384-well microplate using EnVision® microplate reader, the half inhibitory comcentration IC50 value of the compound inhibitor was used as a reference to evaluate the inhibitory effect of the compound on the histone deacetylase (HDAC). The compound was diluted by DMSO to 2 mM, and then added to 384 compound plate, then the solution was diluted 3 times, 10 gradients and double duplicate wells using a Bravo automated liquid workstation; then 0.15 μL of the compound was transferred from 384 compound plate to 384 assay plate by Echo liquid handler. 1.2 configuration of the assay buffer: the configuration contains 20 mM Hepes, 137 mM NaCl, 2.7 mM KCl, 1 mM MgCl2, 0.05% BSA, 0.5 mM TCEP of 1× assay buffer, each of which is represented by final concentration thereof. The rapidly dissolving histone deacetylase was added to the 1× assay buffer and mixed well. The 1.5× enzyme mixture was added to a 20 μL to 384-well assay plate, mixed by centrifugation, placed in a 23° C. incubator, and the enzyme was incubated with the compound for 20 minutes. The 3× substrate solution was configured by 1× assay buffer, and then mixed well. 10 μL was added to a 384-well assay plate, mixed by centrifugation, and placed in a 23° C. incubator for 90 minutes for reaction. The terminating mixture of trypsin and the positive compound SAHA (Vorinostat, vorinostat) was configured with 1× assay buffer and mixed well. The reaction was terminated by adding 30 μL to a 384-well assay plate, then centrifuged, and placed in a 23° C. incubator for 60 minutes. After termination of the reaction for 60 minutes, the 384-well assay plate was placed on an Envision micro-plate reader and the fluorescence value was read. 1.7 Data analysation: the data was analyzed by using XLfit5 software to calculate the IC50 value of the compound.

Another data set deals with T1, HDAC 6 (Homo sapiens, UniProt Q9UBN7).
T1 sequence (Q9UBN7 1-1215): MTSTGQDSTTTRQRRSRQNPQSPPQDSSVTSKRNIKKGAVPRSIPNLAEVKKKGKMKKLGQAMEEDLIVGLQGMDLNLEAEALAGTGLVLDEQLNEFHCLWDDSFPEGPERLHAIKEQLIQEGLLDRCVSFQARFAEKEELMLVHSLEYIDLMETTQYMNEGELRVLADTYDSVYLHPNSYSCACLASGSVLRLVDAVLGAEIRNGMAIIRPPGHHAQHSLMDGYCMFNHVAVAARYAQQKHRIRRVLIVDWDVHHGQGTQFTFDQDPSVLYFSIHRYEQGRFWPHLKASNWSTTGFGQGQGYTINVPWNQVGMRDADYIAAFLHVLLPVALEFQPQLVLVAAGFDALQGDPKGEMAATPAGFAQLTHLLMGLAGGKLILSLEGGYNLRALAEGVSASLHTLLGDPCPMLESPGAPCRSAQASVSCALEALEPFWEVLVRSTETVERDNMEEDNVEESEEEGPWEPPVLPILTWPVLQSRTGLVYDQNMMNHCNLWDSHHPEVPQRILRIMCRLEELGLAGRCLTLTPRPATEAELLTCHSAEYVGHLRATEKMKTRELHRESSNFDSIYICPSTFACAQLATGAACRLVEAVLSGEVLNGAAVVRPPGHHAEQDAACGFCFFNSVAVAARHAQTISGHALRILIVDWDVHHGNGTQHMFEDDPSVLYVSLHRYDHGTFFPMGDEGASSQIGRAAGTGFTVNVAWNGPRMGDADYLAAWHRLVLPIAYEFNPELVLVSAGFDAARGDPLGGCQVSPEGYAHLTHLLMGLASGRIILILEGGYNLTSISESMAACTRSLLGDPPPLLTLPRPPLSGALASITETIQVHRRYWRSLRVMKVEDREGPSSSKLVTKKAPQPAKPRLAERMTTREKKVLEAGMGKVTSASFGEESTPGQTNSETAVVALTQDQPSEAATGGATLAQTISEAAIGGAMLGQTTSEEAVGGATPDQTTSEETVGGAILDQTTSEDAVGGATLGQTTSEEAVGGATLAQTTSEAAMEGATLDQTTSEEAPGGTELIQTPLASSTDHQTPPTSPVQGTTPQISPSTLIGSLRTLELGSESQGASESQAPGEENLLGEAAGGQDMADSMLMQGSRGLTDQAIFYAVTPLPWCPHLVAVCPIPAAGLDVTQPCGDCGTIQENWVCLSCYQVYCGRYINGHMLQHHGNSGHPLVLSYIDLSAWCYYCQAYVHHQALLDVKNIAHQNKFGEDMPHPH
The data set can be described thus: In vitro HDAC enzyme inhibition, fluorescent deacetylation assay (HDAC6). Type of data set: biochemical. The procedure: as §1

Data set [1] is described as follows: Pharmacokinetic evaluation in male beagle dogs. Type of data set: in vivo. The settings on record: plasma, male beagle dog. The procedure: Purpose of the experiment: test the compound's pharmacokinetics in male beagle dogs
Experimental materials: Beagle (male, 6-15 kg, 6 months-4 age, Marshall Bioresources, Beijing, China)
The Beagle's pharmacokinetic characteristics after oral administration of the compound were tested by a standard scheme. In the experiment, the candidate compound was formulated into a uniform suspension and administered to a beagle dog for single oral administration. Oral menstruum was formed by a certain proportion of polyethylene glycol-polyoxyethylene castor oil aqueous solution. Blood samples within 24 hours was collected, then centrifuged at 3000 g for 10 minutes, the supernatant was separated to obtain plasma samples, 30 μL of plasma samples was added into 300 μL of internal standard acetonitrile solution to precipitate protein, 30 μL of supernatant was obtained after vortex and centrifugation, and then equal volume of water was added, followed by vortex and centrifugation for another time to collect the supernatant, and the plasma concentration was quantitatively analyzed by LC-MS/MS analysis, and the pharmacokinetic parameters such as peak concentration, peak-reached time, half-life, and area under the administrating curve were calculated.

HDAC 1, sequence (Q13547 whole entry, species assumed): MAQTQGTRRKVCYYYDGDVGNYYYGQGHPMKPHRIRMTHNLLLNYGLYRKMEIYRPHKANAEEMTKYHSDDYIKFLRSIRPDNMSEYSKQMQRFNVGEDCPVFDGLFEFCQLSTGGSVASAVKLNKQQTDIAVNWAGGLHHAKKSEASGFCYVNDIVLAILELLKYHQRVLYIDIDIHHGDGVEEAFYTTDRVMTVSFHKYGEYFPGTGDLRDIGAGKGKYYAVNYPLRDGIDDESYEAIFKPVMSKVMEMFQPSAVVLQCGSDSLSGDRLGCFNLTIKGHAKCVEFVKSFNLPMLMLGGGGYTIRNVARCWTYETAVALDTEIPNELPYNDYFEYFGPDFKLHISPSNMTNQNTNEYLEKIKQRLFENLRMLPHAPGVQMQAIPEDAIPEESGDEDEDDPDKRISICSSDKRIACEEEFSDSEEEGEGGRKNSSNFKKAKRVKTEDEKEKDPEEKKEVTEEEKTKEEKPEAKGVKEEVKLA

Regarding `O=C(NO)c1ccc(CNC(=O)c2ccc(C3(c4ccc(F)cc4)CCCO3)cc2)cc1` (single isomer, unassigned) [Embodiment22], the IC50 on HDAC 1 is 50 to 200 nM; against HDAC 6, not above 10 nM.

Consider `O=C(NO)c1ccc(Cn2ccc(C3(c4ccc(F)cc4)CCCO3)cc2=O)cc1` (centres unmarked) [Embodiment3], for which the IC50 was 50 to 200 nM at HDAC 1 and not above 10 nM at HDAC 6.

Turning to `O=C(NO)c1ccc(Nc2ccc(C3(c4ccc(F)cc4)CCCO3)cc2)cc1` (centres unmarked) [Embodiment24], the IC50 at HDAC 1 is more than 200 nM; at HDAC 6, 10 to 50 nM.

With `O=C(NO)c1ccc(CNC(=O)c2ccc(C3(c4ccc(F)cc4)CCCO3)cc2)cc1` (centres unmarked) [Embodiment20], the IC50 at HDAC 1 is 50 to 200 nM; at HDAC 6, not above 10 nM.

On to `O=C(NO)c1ccc(Cn2ccc(C3(c4ccc(F)cc4)CCCO3)c(F)c2=O)cc1` (centres unmarked) [Embodiment14], for which the IC50 against HDAC 1 is 50 to 200 nM; against HDAC 6, not above 10 nM.

As to `O=C(NO)c1ccc(Cn2ccc(C3(c4ccc(F)cc4)CCCO3)cc2=O)cc1` (single isomer, unassigned) [Embodiment4], the values for the IC50 against HDAC 1 and against HDAC 6 were 50 to 200 nM and not above 10 nM, respectively.

Take `O=C(NO)c1ccc(CNC(=O)c2ccc(C3(c4ccc(F)cc4)CCCO3)cc2)cc1` (single isomer, unassigned) [Embodiment21]: the concentration for half-maximal inhibition (IC50) is 50 to 200 nM at HDAC 1 and not above 10 nM against HDAC 6.

On to `O=C(NO)c1ccc(Cn2ccc(C3(c4ccccn4)CCCO3)cc2=O)cc1` (centres unmarked) [Embodiment18], for which the IC50 at HDAC 1 was 50 to 200 nM; at HDAC 6, not above 10 nM.

As for `O=C(NO)c1ccc(Cn2ccc(C3(c4ccc(F)cc4)CCCO3)cc2=O)cc1` (single isomer, unassigned) [Embodiment5], the IC50 at HDAC 1 was 50 to 200 nM; on HDAC 6, not above 10 nM.

Turning to `O=C(NO)c1ccc(Cn2ccc(C3(c4ccc(F)cc4)CCCO3)cc2=O)cn1` (centres unmarked) [Embodiment9], the half-inhibitory concentration (IC50) on HDAC 1 is more than 200 nM; on HDAC 6, 50 to 200 nM.

As for `CC(C)C1(c2ccn(Cc3ccc(C(=O)NO)cc3)c(=O)c2)CCCO1` (centres unmarked) [Embodiment1], the IC50 on HDAC 1 is more than 200 nM; against HDAC 6, not above 10 nM.

Turning to `O=C(NO)c1cnc(Cn2ccc(C3(c4ccc(F)cc4)CCCO3)cc2=O)nc1` (centres unmarked) [Embodiment8], the results for the half-maximal inhibitory concentration (IC50) against HDAC 1 and against HDAC 6 were more than 200 nM and not above 10 nM, respectively.

In the case of `O=C(NO)c1ccc(Cn2ccc(C3(c4ccc(F)cc4)OCCO3)cc2=O)cc1` [Embodiment16], the IC50 was 50 to 200 nM at HDAC 1 and not above 10 nM against HDAC 6.

For `O=C(NO)c1ccc(Cn2ccc(C3(c4ccncc4)CCCO3)cc2=O)cc1` (centres unmarked) [Embodiment19], the 50% inhibitory concentration (IC50) is 50 to 200 nM at HDAC 1 and not above 10 nM against HDAC 6.

Regarding `O=C(NO)c1ccc(Cn2ccc(C3(c4ccc(F)cc4F)CCCO3)cc2=O)cc1` (centres unmarked) [Embodiment6], the 50% inhibitory concentration (IC50) is 50 to 200 nM against HDAC 1 and not above 10 nM against HDAC 6.

For `O=C(NO)c1ccc(NC(=O)c2ccc(C3(c4ccc(F)cc4)CCCO3)cc2)cc1` (centres unmarked) [Embodiment25], the IC50 was more than 200 nM at HDAC 1 and 10 to 50 nM against HDAC 6.

As for `O=C(NO)c1ccc(Cn2ccc(C3(c4ccc(F)cc4)COCCO3)cc2=O)cc1` (centres unmarked) [Embodiment17], the IC50 on HDAC 1 is 50 to 200 nM; at HDAC 6, not above 10 nM.

`O=C(NO)c1ccc(Cn2ccc(C3(c4ccc(F)cc4)CCCO3)cc2=O)nc1` (centres unmarked) [Embodiment7]: the IC50 against HDAC 1 was more than 200 nM; against HDAC 6, not above 10 nM.

With `O=C(NO)c1ccc(Cn2ccc(C3(c4ccc(F)cc4)CCO3)cc2=O)cc1` (centres unmarked) [Embodiment12], the IC50 was 50 to 200 nM against HDAC 1 and not above 10 nM on HDAC 6.

On to `O=C(NO)c1ccc(CNc2ccc(C3(c4ccc(F)cc4)CCCO3)cc2)cc1` (centres unmarked) [Embodiment23], for which the IC50 was more than 200 nM against HDAC 1 and 10 to 50 nM on HDAC 6.

In the case of `O=C(NO)c1ccc(Cn2ccc(C3(c4c(F)cc(F)cc4F)CCCO3)cc2=O)cc1` (centres unmarked) [Embodiment10], the IC50 at HDAC 1 is more than 200 nM; against HDAC 6, 10 to 50 nM.

With `O=C(NO)c1ccc(Cn2cc(F)c(C3(c4ccc(F)cc4)CCCO3)cc2=O)cc1` (centres unmarked) [Embodiment11], the values for the half-inhibitory concentration (IC50) against HDAC 1 and against HDAC 6 were 50 to 200 nM and not above 10 nM, respectively.

As to `O=C(NO)c1ccc(Cn2ccc(C3(c4ccc(F)cc4)CCCCO3)cc2=O)cc1` (centres unmarked) [Embodiment15], the IC50 against HDAC 1 is 50 to 200 nM; at HDAC 6 it was not above 10 nM.

Regarding `O=C(NO)c1ccc(CNC(=O)c2ccc(C3(c4ccc(F)cc4)CCCO3)cn2)cc1` (centres unmarked) [Embodiment26], the 50% inhibitory concentration (IC50) against HDAC 1 is 50 to 200 nM; on HDAC 6 it was not above 10 nM. Also, the half-life in data set [1] (oral, read-out: Half-life T1/2 (converted)) is 2.14 h. For the same compound, the AUC in data set [1] (single oral administration, read-out: Integrated concentration AUC) turned out to be 13.3 µM·h. In data set [1] (single oral administration, read-out: bioavailability F (%)), the bioavailability amounted to 53.1%. Further, in data set [1] (read-out: Clearance rate), the clearance was found to be 16 mL/min/kg.

Turning to `CC1(c2ccn(Cc3ccc(C(=O)NO)cc3)c(=O)c2)CCCO1` (centres unmarked) [Embodiment2], the IC50 at HDAC 1 is more than 200 nM; against HDAC 6, not above 10 nM.

For the compound `O=C(NO)c1ccc(Cn2ccc(C3(c4ccc(F)cc4)CCO3)c(F)c2=O)cc1` (centres unmarked) [Embodiment13], the figures for the IC50 at HDAC 1 and at HDAC 6 were 50 to 200 nM and not above 10 nM, respectively.
